# Test results from ChEMBL document CHEMBL1201862, “PubChem BioAssay data set” (2004).
# Active and inactive are the calls of the source.
# Legend:
# [1] = molecular target: T1, Microphthalmia-associated transcription factor (Homo sapiens, UniProt O75030); test: TRPM1 promoter luciferase signal decrease, dose response, MITF inhibitor project, cell-based, SK-MEL-5, cherry-picked, set 3 (AID 493073); format: functional
# T1 sequence (O75030 whole entry): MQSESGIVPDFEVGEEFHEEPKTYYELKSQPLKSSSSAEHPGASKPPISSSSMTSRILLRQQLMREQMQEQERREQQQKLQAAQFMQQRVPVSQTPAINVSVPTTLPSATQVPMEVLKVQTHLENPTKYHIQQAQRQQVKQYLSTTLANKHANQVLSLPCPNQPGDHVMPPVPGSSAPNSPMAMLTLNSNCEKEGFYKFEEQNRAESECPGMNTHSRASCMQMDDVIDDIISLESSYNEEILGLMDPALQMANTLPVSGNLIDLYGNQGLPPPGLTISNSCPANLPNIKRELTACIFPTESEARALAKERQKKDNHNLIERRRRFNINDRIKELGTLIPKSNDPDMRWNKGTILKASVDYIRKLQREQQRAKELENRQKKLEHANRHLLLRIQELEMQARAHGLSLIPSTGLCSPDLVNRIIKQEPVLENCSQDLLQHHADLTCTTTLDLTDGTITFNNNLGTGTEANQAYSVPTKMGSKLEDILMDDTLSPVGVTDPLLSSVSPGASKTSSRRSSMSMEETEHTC
# [2] = inhibitors of intracellular T. cruzi replication, confirmation, NIH3T3 host cells, beta-gal luminescence (AID 2044); format: functional, cell-based;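 note: intracellular parasites grown in NIH/3T3 mouse fibroblasts as host cells; luminescent beta-galactosidase reporter signal from transgenic T. cruzi replicating inside host cells; inhibitors lower the luminescence signal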
# [3] = cytotoxicity toward NIH3T3 fibroblasts, dose response, counter-screen, cell-based, ATP luminescence, mouse fibroblasts (AID 2010); format: functional;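 note: cells exposed to compound for about 90 hours before reading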
# cells = format: functional
# [4] = THP-1 cell cytotoxicity, dose response, cytotoxicity control for non-replicating M. tuberculosis project (AID 489025); format: functional
# Vero = test: cells; format: functional; conditions: Chlorocebus sabaeus
# Streptokinase A = molecular target: T2, Streptokinase A (Streptococcus pyogenes serotype M1, UniProt P10520); test: S. pyogenes streptokinase expression inhibitors, potency, dose response, plasminogen activation absorbance, OD405 (AID 1914); format: functional, Streptococcus pyogenes M1 GAS;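 note: secreted streptokinase activity via plasminogen activation per viability signal from cell pellet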
# T2 sequence (P10520 whole entry): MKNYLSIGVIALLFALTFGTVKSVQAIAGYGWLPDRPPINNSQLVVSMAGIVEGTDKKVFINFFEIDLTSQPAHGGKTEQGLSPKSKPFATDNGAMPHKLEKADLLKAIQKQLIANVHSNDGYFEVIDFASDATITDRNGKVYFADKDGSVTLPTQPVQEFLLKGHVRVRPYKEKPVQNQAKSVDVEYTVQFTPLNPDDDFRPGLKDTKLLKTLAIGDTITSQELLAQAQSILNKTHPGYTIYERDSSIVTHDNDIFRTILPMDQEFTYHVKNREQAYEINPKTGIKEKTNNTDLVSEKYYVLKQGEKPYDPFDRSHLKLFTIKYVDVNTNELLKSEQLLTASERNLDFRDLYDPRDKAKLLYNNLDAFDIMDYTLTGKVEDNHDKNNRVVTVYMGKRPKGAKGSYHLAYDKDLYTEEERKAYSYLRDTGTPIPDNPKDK
# [5] = AlphaScreen signal interference compounds, dose response, artefact control for ARNT-TACC3 interaction inhibitor project, biochemical, luminescence, cherry-pick (AID 651705); format: functional;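 note: AlphaScreen bead proximity signal that flags compounds interfering with the detection technology; potency reflects signal decrease which marks the compound as an assay artifact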
# [6] = system: Streptococcus sp. 'group A'; test: growth inhibition of control SK(-) GAS strain, dose response, counter-screen for streptokinase expression inhibitor project, luminescence, kanamycin, BacTiterGlo, confirmation (AID 1900); format: functional, organism-based
# INS1 = test: beta cell apoptosis inhibitors, cytokine rescue, dose response, luminescence, retest (AID 449756); format: functional, cell-based; conditions: Rattus norvegicus, INS1;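 note: cell death triggered by IL-1 beta plus TNF-alpha plus IFN-gamma mixture; protective hits raise ATP signal compared with cytokine alone wells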
# Streptococcus = test: Group A Streptococcus viability loss, dose response, counter-screen for streptokinase expression inhibitor project, luminescence, BacTiterGlo (AID 1915); format: functional, organism-based;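 note: potency for reduction of bacterial viability or growth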
# [7] = intracellular Trypanosoma cruzi inhibitors in host cells – cell-based, plate reader, cherry-pick samples, set 3, dose response (AID 651818); format: functional;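 note: compounds incubated with infected cells for about four days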
# [8] = molecular target: T3, Carboxy-terminal domain RNA polymerase II polypeptide A small phosphatase 1 (Homo sapiens, UniProt Q9GZU7); test: inhibitors of CTDSP1, concentration-response testing, biochemical assay, absorbance-based, actives from ultra-high-throughput screening (AID 540297); format: functional
# T3 sequence (Q9GZU7 whole entry): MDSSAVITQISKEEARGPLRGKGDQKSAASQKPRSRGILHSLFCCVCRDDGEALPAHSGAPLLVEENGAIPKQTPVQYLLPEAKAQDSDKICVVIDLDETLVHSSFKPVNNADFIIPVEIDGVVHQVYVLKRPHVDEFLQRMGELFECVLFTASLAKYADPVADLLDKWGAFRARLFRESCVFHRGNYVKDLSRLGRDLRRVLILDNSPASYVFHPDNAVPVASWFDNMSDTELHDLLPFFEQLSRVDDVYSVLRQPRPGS
# Escherichia coli = test: microbe, parasite or virus in culture
# Protein Wnt-3a = Protein Wnt-3a (Mus musculus, UniProt P27467); test: Wnt3a-driven reporter signaling inhibition, dose response, selectivity assay for Gli-SUFU antagonist project, Wnt-LIGHT cells, luminescence (AID 651570); format: functional; conditions: read-out: IC50_Mean;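 note: Wnt-LIGHT reporter cells stimulated with conditioned medium from Wnt3a-producing cells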
# [9] = molecular target: T4, Short transient receptor potential channel 4 (Mus musculus, UniProt Q9QUQ5); test: mouse TRPC4 channel activators, dose response, cell-based, HEK293 TRPC4/mu-opioid, Fluo-4 calcium (AID 434937); format: functional
# T4 sequence (Q9QUQ5 whole entry): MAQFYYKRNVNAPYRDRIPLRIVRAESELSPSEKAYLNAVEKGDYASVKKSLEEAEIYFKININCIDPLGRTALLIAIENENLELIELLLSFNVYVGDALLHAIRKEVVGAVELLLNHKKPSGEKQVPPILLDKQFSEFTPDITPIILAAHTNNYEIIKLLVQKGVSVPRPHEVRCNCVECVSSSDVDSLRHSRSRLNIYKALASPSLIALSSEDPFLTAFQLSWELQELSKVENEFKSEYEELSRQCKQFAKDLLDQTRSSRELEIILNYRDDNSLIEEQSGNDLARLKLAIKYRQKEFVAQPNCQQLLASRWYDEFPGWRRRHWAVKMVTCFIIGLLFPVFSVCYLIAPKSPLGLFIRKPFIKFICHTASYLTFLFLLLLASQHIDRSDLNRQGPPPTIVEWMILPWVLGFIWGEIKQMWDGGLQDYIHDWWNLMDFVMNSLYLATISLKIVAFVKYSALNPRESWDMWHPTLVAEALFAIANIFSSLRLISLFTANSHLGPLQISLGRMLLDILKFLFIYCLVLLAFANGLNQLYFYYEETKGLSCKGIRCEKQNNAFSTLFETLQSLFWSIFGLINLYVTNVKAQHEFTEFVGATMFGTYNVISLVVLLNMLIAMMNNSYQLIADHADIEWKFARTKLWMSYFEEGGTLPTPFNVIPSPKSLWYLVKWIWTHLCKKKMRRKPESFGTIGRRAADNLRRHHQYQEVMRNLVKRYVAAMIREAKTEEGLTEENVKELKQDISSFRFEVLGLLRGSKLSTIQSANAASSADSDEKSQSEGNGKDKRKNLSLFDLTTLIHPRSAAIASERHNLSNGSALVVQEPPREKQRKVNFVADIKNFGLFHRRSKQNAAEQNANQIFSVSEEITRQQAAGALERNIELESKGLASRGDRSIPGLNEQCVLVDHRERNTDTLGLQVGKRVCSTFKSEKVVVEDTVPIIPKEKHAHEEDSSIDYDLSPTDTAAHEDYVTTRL
# [10] = Luminescence Cell-Based Dose Response HTS to Identify Inhibitors of 5'UTR Stem-Loop Driven Prion Protein mRNA Translation in H4 Neuroglioblastoma Cells. [Related pubchem assays: 1827 (Project Summary), 1813 (Primary HTS)]; format: functional
# [11] = inhibitors of firefly luciferase expression or activity, dose response, H4 neuroglioma cells, luminescence (AID 1990); format: functional, cell-based
# [12] = inhibitors of SNCA 5'UTR-driven reporter translation, confirmation, H4 neuroglioma cells, luminescence (AID 1988); format: functional, cell-based
# Estrogen receptor beta = Estrogen receptor beta (Homo sapiens, UniProt Q92731);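 note: recombinant ER-beta bound to coactivator SRC1 peptide in presence of estradiol agonist; inhibitors block coactivator peptide binding and lower the FRET signal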
# [13] = molecular target: Glyceraldehyde-3-phosphate dehydrogenase (Homo sapiens, UniProt P04406)
# Nonstructural protein 1 = Nonstructural protein 1 (Influenza A virus, UniProt Q194T2); format: functional, Influenza A virus (A/California/07/2009(H1N1))
# [14] = molecular target: DNA dC->dU-editing enzyme APOBEC-3G (Homo sapiens, UniProt Q9HC16); test: Dose Response confirmation of small molecule APOBEC3G DNA Deaminase Inhibitors via a fluorescence-based single-stranded DNA deaminase assay. [Related pubchem assays (depositor defined):AID493012, AID493028]; format: functional
# Chain of DNA dC->dU-editing enzyme APOBEC-3G (Q9HC16 whole entry): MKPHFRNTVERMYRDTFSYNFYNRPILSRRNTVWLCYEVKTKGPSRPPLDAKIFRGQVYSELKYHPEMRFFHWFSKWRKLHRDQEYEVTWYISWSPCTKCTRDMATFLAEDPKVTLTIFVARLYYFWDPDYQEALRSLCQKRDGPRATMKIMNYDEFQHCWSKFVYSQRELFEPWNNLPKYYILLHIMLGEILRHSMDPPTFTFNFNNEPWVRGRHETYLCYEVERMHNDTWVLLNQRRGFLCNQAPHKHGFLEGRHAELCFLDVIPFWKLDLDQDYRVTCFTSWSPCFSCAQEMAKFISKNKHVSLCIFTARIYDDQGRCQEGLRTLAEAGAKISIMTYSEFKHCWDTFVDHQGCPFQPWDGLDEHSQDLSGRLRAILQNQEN
# Chain of Nonstructural protein 1 (Q194T2 whole entry): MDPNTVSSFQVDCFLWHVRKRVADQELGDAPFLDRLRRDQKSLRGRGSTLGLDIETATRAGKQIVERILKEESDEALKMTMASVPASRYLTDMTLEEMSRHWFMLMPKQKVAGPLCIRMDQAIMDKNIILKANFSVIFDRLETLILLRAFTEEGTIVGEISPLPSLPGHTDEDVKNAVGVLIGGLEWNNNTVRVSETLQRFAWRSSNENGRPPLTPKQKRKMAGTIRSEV
# Chain of Glyceraldehyde-3-phosphate dehydrogenase (P04406 whole entry): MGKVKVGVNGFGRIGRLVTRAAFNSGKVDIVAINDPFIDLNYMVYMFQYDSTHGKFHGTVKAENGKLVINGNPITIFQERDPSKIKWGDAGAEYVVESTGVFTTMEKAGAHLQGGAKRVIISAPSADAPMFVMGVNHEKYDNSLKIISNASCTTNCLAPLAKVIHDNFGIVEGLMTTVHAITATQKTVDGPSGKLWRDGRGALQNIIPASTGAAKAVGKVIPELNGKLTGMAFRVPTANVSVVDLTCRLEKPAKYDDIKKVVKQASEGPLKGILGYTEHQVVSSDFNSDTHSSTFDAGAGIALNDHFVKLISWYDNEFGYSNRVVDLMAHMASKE
# Chain of Protein Wnt-3a (P27467 whole entry): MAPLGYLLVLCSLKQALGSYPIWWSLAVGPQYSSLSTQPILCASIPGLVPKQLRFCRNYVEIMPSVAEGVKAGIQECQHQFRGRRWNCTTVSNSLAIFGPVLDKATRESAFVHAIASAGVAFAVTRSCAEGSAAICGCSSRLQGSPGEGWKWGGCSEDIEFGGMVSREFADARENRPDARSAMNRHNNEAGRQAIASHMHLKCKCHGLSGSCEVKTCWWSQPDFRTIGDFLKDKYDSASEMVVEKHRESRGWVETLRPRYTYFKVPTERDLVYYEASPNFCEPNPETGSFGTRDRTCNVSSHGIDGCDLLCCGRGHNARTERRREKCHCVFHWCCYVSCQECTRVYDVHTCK
# Chain of Estrogen receptor beta (Q92731 whole entry): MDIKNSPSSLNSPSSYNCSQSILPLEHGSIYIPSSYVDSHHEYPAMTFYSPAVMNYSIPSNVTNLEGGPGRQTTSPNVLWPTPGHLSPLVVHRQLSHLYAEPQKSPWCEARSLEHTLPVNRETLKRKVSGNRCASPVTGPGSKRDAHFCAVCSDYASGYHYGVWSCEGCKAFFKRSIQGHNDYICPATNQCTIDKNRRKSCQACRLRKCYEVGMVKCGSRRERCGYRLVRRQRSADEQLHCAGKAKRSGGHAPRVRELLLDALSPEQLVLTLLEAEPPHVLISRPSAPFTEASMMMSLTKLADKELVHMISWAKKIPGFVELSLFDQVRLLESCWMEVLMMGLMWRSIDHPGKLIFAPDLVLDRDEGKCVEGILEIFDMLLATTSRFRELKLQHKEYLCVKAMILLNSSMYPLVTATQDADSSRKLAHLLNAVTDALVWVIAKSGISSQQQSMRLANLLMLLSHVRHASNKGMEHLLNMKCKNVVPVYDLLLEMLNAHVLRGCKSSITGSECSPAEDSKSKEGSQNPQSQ
smiles,measurement,setting,value
CCOC(=O)N1C(=O)[C@](CC)(c2ccccc2)N1C(=O)OCC,AC50,[1],10 µM (active)
O=C(N/N=C\c1ccc([N+](=O)[O-])o1)C1COc2ccccc2O1 (stereo not drawn),EC50,[2],0.532 µM (active)
same,AC50,[1],7.21 µM (active)
same,EC50,[3],> 60 µM (inconclusive)
same,IC50,cells,4.2 µM (active)
same,CC50,[4],32.5 µM (active)
CCOC(=O)c1c(NC(=O)CN2CCN(C)CC2)sc(C(=O)Nc2ccccc2)c1C,CC50,Vero,> 25 µM (active)
c1ccc(CNc2nc(-c3ccccn3)nc3ccccc23)cc1,EC50,Streptokinase A,> 150 µM (not active)
same,AC50,[5],80.1 µM (active)
same,EC50,[6],2.57 µM (active)
same,AC50,INS1,2.62 µM (active)
same,EC50,Streptococcus,6.86 µM (active)
C[C@H]1CN([C@@H](C)CO)C(=O)c2cccc(NC(=O)c3ccncc3)c2O[C@H]1CN(C)C(=O)Nc1ccccc1,AC50,[7],2.61 µM (active)
same,IC50,[8],13.8 µM (active)
O=C1/C(=C/c2ccccn2)COc2ccccc21,IC50,cells,20.9 µM (active)
same,CC50,[4],28.2 µM (active)
COc1ccc(/C=C(/NC(=O)c2cccc([N+](=O)[O-])c2)C(=O)O)cc1,AC50,Escherichia coli,84.9 µM (active)
O=C(NCCc1cccc(Cl)c1)c1ccc(OC2CCN(Cc3ccccn3)CC2)cc1,IC50,Protein Wnt-3a,28.8 µM (inactive)
same,EC50,[9],0.944 µM (active)
COC(=O)c1ccc(C2CC(=O)Nc3cc(OC)c(OC)cc32)cc1 (stereo not drawn),AC50,Escherichia coli,32 µM (active)
Cc1onc(-c2ccccc2Cl)c1C(=O)NCc1ccccn1,EC50,[10],> 120 µM (not active)
same,EC50,[11],> 120 µM (not active)
same,EC50,[12],> 120 µM (not active)
O=C(NNC(=O)c1ccc2ncccc2c1)c1ccc(Cl)cc1,EC50,[10],> 120 µM (not active)
same,EC50,[11],> 120 µM (not active)
same,EC50,[12],> 120 µM (not active)
CCn1c(NN)nc2sc3c(c2c1=O)CCC3,IC50,Estrogen receptor beta,> 50 µM (not active)
Cc1onc(-c2ccccc2Cl)c1C(=O)Nc1ccc(S(N)(=O)=O)cc1,IC50,[13],> 100 µM (not active)
COc1cc2cc(C(c3nnnn3C3CCCCC3)N(C)C3CCCCC3)c(O)nc2cc1OC (stereo not drawn),EC50,[10],> 120 µM (not active)
same,EC50,[11],15.7 µM (active)
same,EC50,[12],> 120 µM (not active)
C[C@H](CO)N1C[C@H](C)[C@H](CN(C)Cc2ccc(C(F)(F)F)cc2)Oc2c(NC(=O)CCCCCC(=O)Nc3ccccc3N)cccc2C1=O,AC50,[7],1.92 µM (active)
Cc1cccc(NC(=O)CSc2cccc3cccnc23)c1C,AC50,[5],91.7 µM (active)
O=[N+]([O-])c1ccc(O)c(/C=N/Nc2nc3ccccc3[nH]2)c1,IC50,Nonstructural protein 1,10.3 µM (active)
same,AC50,Escherichia coli,25.6 µM (active)
same,EC50,[6],0.716 µM (active)
same,AC50,INS1,0.559 µM (active)
same,EC50,Streptococcus,1.56 µM (active)
O=C1C=CC(=O)C=C1 [BENZOQUINONE],IC50,[14],36.1 µM (active)
CC(OC(=O)c1ccc([N+](=O)[O-])s1)C(=O)NC1CCCCC1C (stereo not drawn),AC50,[1],12 µM (active)
same,IC50,cells,14.1 µM (active)
C[C@H](CO)N1C[C@H](C)[C@H](CN(C)S(=O)(=O)c2ccccc2)Oc2ccc(NC(=O)Nc3ccc(C(F)(F)F)cc3)cc2CC1=O,AC50,[7],4.13 µM (active)
COc1ccccc1/C=C1\SC(=S)N(CCC(=O)NCCc2ccc(O)cc2)C1=O,CC50,Vero,> 25 µM (active)
C[C@H](CO)N1C[C@H](C)[C@H](CN(C)Cc2ccc(C(=O)Nc3ccccc3N)cc2)Oc2ccc(N(C)C)cc2CC1=O,AC50,[7],2.03 µM (active)
COc1ccc(C2=Nn3c(nnc3-c3ccccn3)SC2)cc1,AC50,[5],125 µM (active)
COc1ccc(/C=N/NC(=O)c2cccnc2)cc1COc1ccc([N+](=O)[O-])c(C)c1,EC50,[10],28.9 µM (active)
same,EC50,[11],> 120 µM (not active)
same,EC50,[12],8.08 µM (active)
